# Measured values published in ChEMBL document CHEMBL2150924, “Inhibition of NaV1.6 sodium channel currents by a novel series of 1,4-disubstituted-triazole derivatives obtained via copper-catalyzed click chemistry” (Bioorg Med Chem Lett, 2012).
# Assays:
# [1] = biological target: Sodium channel protein type 8 subunit alpha (Rattus norvegicus) (UniProt O88420); assay: Inhibition of rat NaV1.6-mediated current expressed in human HEK293 cells at 10 uM by patch clamp assay; assay type: cell-based
# [2] = biological target: Sodium channel protein type 8 subunit alpha (Rattus norvegicus, UniProt O88420); assay: Inhibition of rat NaV1.6-mediated current expressed in human HEK293 cells by patch clamp assay; assay type: cell-based
# Sequence of Sodium channel protein type 8 subunit alpha (O88420 whole entry): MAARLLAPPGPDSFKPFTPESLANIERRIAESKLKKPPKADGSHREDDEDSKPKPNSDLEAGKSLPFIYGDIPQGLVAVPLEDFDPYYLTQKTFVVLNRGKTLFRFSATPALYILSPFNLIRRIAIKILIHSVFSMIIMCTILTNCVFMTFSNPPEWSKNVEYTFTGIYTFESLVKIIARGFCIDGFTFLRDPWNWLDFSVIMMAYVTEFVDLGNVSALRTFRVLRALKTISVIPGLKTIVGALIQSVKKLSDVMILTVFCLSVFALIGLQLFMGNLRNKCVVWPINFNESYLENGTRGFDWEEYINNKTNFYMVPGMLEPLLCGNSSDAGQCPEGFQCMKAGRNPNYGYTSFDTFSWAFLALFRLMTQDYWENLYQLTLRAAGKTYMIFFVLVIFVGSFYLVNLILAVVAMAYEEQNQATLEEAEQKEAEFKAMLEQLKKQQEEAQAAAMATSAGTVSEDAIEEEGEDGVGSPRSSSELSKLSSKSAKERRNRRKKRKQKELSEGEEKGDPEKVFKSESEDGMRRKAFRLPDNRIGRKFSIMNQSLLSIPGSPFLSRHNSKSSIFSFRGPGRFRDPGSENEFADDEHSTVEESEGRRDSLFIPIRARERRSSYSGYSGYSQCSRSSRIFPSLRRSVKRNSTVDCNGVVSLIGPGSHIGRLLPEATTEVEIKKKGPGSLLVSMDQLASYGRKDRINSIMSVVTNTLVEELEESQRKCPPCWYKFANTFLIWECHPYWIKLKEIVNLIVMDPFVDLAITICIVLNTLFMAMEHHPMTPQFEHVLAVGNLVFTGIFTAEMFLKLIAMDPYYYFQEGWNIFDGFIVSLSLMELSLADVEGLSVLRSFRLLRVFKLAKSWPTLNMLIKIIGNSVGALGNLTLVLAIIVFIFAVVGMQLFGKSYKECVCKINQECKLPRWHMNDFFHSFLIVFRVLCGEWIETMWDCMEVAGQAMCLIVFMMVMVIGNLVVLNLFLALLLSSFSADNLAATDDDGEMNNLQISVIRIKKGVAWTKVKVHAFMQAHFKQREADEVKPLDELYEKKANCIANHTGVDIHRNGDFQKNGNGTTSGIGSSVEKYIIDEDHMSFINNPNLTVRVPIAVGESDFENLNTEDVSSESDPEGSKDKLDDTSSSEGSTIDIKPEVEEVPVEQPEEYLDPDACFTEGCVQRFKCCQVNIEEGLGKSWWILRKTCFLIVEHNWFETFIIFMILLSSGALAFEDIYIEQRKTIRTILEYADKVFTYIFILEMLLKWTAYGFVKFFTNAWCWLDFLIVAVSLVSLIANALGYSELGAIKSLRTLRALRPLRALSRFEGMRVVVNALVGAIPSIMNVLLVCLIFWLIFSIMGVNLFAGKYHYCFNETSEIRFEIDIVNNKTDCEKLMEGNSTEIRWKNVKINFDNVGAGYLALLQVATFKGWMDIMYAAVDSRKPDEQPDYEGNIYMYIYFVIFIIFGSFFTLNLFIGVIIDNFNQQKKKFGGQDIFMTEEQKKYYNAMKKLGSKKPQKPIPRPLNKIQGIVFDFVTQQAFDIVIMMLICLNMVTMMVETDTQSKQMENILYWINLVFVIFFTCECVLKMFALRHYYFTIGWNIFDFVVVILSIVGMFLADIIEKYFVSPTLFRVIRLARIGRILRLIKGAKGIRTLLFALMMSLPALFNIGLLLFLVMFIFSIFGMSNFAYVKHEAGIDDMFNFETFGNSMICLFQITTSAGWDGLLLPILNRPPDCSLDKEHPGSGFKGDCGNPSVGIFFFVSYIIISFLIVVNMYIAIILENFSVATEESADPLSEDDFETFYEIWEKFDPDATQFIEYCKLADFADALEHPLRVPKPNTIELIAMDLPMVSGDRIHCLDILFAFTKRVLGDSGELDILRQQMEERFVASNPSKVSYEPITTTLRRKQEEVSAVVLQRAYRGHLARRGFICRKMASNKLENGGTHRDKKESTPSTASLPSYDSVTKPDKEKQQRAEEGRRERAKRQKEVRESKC
# Sequence of Sodium channel protein type 8 subunit alpha (Rattus norvegicus) (O88420 whole entry): as above
inhibition [1] [%],IC50 [2] [µM],SMILES
3.9,–,O=C(Cn1cc(-c2ccccc2)nn1)c1ccccc1
13.6,–,O=C(Cn1cc(COc2ccccc2)nn1)c1ccccc1
16,28.5,c1ccc(OCc2cn(-c3ccccc3)nn2)cc1
22.7,52,c1ccc(CCn2cc(CCCOc3ccccc3)nn2)cc1
5.9,–,c1ccc(OCCCc2cn(-c3ccccc3)nn2)cc1
8.9,–,c1ccc(CCn2cc(COc3ccccc3)nn2)cc1
26,31.7,c1ccc(Cn2cc(CCCOc3ccccc3)nn2)cc1
22.7,53.6,O=C(Cn1cc(CCCOc2ccccc2)nn1)c1ccccc1
11,–,c1ccc(Cn2cc(COc3ccccc3)nn2)cc1
10,125,c1ccc(Cn2cc(-c3ccccc3)nn2)cc1
16,–,c1ccc(-c2c[nH]c(-c3ccccc3)n2)cc1
11.5,–,c1ccc(CCn2cc(-c3ccccc3)nn2)cc1
21.7,19.6,COc1ccc(-c2nc(-c3ccccc3)c[nH]2)cc1
6.2,–,c1ccc(-c2cn(-c3ccccc3)nn2)cc1
